US10766940B2, “Brain penetrant amylin receptor based peptides for Alzheimer's disease” (The Governors of the University of Alberta, priority 2016, dated 2020)
Residues, ends and D or L forms follow the SMILES beside them. No end group written: not given here.

Legend:
[1] = system: h-Amylin depression of hippocampal LTP; experiment: Hippocampal slice electrophysiology, long-term potentiation (LTP); parameters: species or system mouse; conditions: for reversal of h-Amylin reduction in LTP: 250 nM peptide perfused 5 min prior to 50 nM h-Amylin; for effect of peptide alone on LTP: 250 nM, mouse hippocampal slice
Procedure: Brains were quickly removed from mice following decapitation, placed in a cold artificial cerebral spinal fluid (aCSF) on a vibratome chamber, and transverse sections cut through the hippocampus. The aCSF contained (in millimolar 124 NaCl, 3 KCl, 2.4 CaCl2, 2 MgCl2, 1.25 NaH2PO4, 26 NaHCO3, and 10 D-glucose and was equilibrated with 95% 02 and 5% CO2. Hippocampal slices (400-μm thick) were maintained in aCSF-filled holding chamber at room temperature for at least 1 h and individually transferred to the submerged glass bottom recording chamber, which was constantly perfused with aCSF (2 ml/min) at 30° C. Field excitatory postsynaptic potential (fEPSP) was recorded with a metallic (Pt/Ir) electrode (FHC, Bowdoin, Me.) from the stratum radiatum layer of Cornu ammonis 1 region of the hippocampus (CA1) area, and the Schaffer collateral afferents were stimulated with 100-μs test pulses via a bipolar cluster electrode (FHC). For long-term potentiation (LTP) experiments, the stimulus strength was set to elicit 40-50% of the maximum fEPSP amplitude and test pulses were delivered to Schaffer collaterals once every 30 s. LTP was induced by 3-theta-burst stimulation (3-TBS) protocol (each burst consisted of four pulses at 100 Hz with a 200-ms interburst interval). Before 3-TBS or drug application, the responses were monitored for at least 10 min to ensure a stable baseline of fEPSP.
Soluble oligomeric Aβ1-42, Fragments R5, R10, R11 and h-Amylin were used. Aβ1-42 was purchased from rPeptide, and h-Amylin were purchased from American Peptide. All drugs and chemicals were applied directly to the slice via bath perfusion, which allowed for a complete exchange of the perfusate in less than a minute and a half.

[2] = biological target: T1, AMY3 receptor (CTR+RAMP3), HEK293-AMY3 cells (Homo sapiens, UniProt O60896+P30988); experiment: Peptide array-cell binding assay, AMY3 cells; conditions: membrane-bound peptides, GFP cells
T1 construct: expressed in transfected cells; AMY3-293 / AMY3-HEK)
T1 sequence (P30988 25-474): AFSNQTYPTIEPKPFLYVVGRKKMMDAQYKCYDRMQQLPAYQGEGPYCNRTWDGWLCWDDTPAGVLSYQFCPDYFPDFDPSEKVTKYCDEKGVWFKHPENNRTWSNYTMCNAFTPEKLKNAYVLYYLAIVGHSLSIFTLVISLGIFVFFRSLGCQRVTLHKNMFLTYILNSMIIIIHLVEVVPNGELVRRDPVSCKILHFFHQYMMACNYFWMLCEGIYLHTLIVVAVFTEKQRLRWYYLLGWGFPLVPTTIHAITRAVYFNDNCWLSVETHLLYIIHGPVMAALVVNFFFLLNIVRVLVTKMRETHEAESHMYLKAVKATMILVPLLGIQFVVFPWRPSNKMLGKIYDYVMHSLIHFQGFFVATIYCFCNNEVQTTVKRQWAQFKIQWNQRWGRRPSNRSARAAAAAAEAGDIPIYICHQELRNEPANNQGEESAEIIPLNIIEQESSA
T1 sequence (O60896 24-148 partner): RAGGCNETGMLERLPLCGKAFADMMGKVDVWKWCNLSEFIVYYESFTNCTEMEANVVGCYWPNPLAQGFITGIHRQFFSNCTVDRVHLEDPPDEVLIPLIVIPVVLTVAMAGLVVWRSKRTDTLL
Description: A peptide array library derived from AC253 peptide sequence comprising 14 short peptide sequences namely, R1-R14 (R-R13 are 12 amino acids, peptide R14 is 14 aa), was synthesized in duplicate on a cellulose membrane using SPOT synthesis. Briefly, peptide fragments were designed by selecting the first 12 amino acids from N-terminus, skipping one amino acid and moving towards C-terminus to yield 13 sequences R1-R13, and peptide R14 is the first 14 amino acid of the N-terminus region of AC253. The peptide array was synthesized on a PEG-500-derivatized cellulose membrane with a free amino terminal group using a semiautomatic robot AutoSpot ASP222 (Intavis AG, Germany). Synthesis of peptides on PEG500 derivatised cellulose membrane was started by attaching first β-alanine residue (linker) to the cellulose membrane and subsequently peptides synthesized from the C-terminus. […]
To screen the peptide library for amylin receptor binding affinity, transfected GFP-positive Human Embryonic Kidney 293 cells that express AMY3 receptor (CTR+RAMP3) was used. […] The peptide array membrane was incubated with 20 ml GFP-cells (75,000/ml) in serum free media for 3 hr, and after washing, the net fluorescence intensity of each peptide spot due to bound cells was quantified using a Kodak imager. […] Duplicate peptide spots, two scans, and two different experiments were used to calculate net fluorescence intensity. […]

AMY1 = biological target: T2, AMY1 (Homo sapiens, UniProt O60894+P30988); experiment: Flow cytometry cell uptake, AMY1 cells; assay type: cell-based; conditions: 10 μM, 37° C., 60 min
T2 construct: expressed in transfected cells
T2 sequence (O60894 27-148 partner, one chain of several): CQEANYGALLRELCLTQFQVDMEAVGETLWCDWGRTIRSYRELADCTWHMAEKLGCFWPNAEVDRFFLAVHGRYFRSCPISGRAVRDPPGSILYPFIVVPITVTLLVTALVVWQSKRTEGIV

Compound | reversal of h-Amylin reduction in LTP [1] | effect of peptide alone on LTP [1] | binding to HEK293-AMY3 cells on peptide array (fluorescence) [2] | flow cytometry binding to AMY1 cells (AMY1)
CC(C)C[C@H](NC(=O)[C@H](CCC(=O)O)NC(=O)[C@H](CCC(N)=O)NC(=O)[C@@H](N)CO)C(=O)N[C@@H](Cc1c[nH]cn1)C(=O)N[C@@H](CCCNC(=N)N)C(=O)N[C@@H](CC(C)C)C(=O)N[C@@H](CCC(N)=O)C(=O)N[C@H](C(=O)N[C@@H](Cc1ccc(O)cc1)C(=O)N1CCC[C@H]1C(=O)N[C@@H](CCCNC(=N)N)C(N)=O)[C@@H](C)O [R5] (H-SQELHRLQTYPR-NH2; N-terminus assumed) | significantly reversed | did not impair LTP | most significant binding | selective and significant specific binding
LGRLSQELHRLQTY (LGRLSQELHRLQTY-NH2) [R14] | significantly reversed | did not impair LTP | most significant binding | selective and significant specific binding
